Legend:
[1] = system: populations of P. longispinus; experiment: Preliminary trap tests by UPV in persimmon cultivation, Valencian Community; assay type: in vivo, Pseudococcus longispinus
Text: The sex pheromone of the species P. longispinus was described by Millar et al. (Sex pheromone of the longtailed mealybug: a new class of monoterpene structure. Organic Letters 2009, 11, 2683-2685) as the compound 2-(1,5,5-trimethylcyclopent-2-en-1-yl)ethyl acetate, in populations of the species collected in the United States. However, this substance turned out to be ineffective in attracting populations of P. longispinus in persimmon cultivation in the Valencian Community. […] This is not uncommon, and this phenomenon has been described for the mealybug P. ficus, whose Californian populations produce a single-component pheromone, while Israeli populations produce an additional compound (Zada, A., Dunkelblum, E., Assael, F., Harel, M., Cojocaru, M. & Mendel, Z. (2003) Sex pheromone of the vine mealybug, Planococcus ficus in Israel: occurrence of a second component in a mass-reared population. Journal of Chemical Ecology, 29, 977-988).

[2] = system: Pseudococcus longispinus males; experiment: Field trial of attraction response of males, persimmon orchard in Alginet; assay type: in vivo; settings: for Captures (mean) of P. longispinus males: rubber septum carrier loaded with 250 μg, white sticky cardboard trap, six blocks, number of males captured per trap and per day compared
Method: (§1) The response of Pseudococcus longispinus males to 2-(1,5-dimethyl-4-methylenecyclopent-2-en-1-yl)ethyl acetate was evaluated by means of a field trial carried out in a persimmon orchard, located in the town of Alginet (Valencia, Spain). Six blocks of 3 devices were installed: (A) a device with a carrier, without attractant and with a trap consisting of a white sticky cardboard (95×150 mm), (B) a device with a carrier loaded with 250 μg of the described substance by Miller et al. in 2009 (e.g. 2-(1,5,5-trimethylcyclopent-2-en-1-yl)ethyl acetate) and a trap consisting of a white sticky cardboard, and (C) a carrier device loaded with 250 μg of 2-(1,5-dimethyl-4-methylenecyclopent-2-en-1-yl)ethyl acetate and a trap consisting of a white sticky cardboard. Within each block, the devices were placed at a distance of 10 m from each other, while the distance between blocks was at least 30 m. The carriers loaded with the substances were of the rubber septa type and were inserted in the center of the trap.
(§2) The captures obtained in each of the traps were reviewed biweekly and the captured individuals were taken to the laboratory to be identified and counted.
(§3) The number of males captured per trap and per day was compared using a variance analysis (ANOVA; LSD test for comparison of means, P<0.05), prior transformation (ln(x+1)) of the data in order to homogenize the variance.

[3] = system: Pseudococcus longispinus males; experiment: Second field trial of attractant activity, persimmon orchard in L'Alcúdia; assay type: in vivo; settings: for Attractant activity of baited devices (in words): 250 μg, versus traps without attractant (A); for Captures (mean) of P. longispinus males: rubber septum carrier loaded with 250 μg, white sticky cardboard trap, four blocks
Method: as §1, §2, §3
A second field trial was conducted to evaluate the attractant activity of 2-(1,5-dimethyl-4-methylenecyclopent-2-en-1-yl)ethyl propionate, in a persimmon orchard located in L'Alcúdia (Valencia, Spain). Four blocks of 3 devices were installed: (A) a device with a carrier, without attractant and with a trap consisting of a white sticky cardboard (95×150 mm), (B) a device with a carrier loaded with 250 μg of 2-(1,5-dimethyl-4-methylenecyclopent-2-en-1-yl)ethyl propionate and a trap consisting of a white sticky cardboard, and (C) a carrier device loaded with 250 μg of 2-(1,5-dimethyl-4-methylenecyclopent-2-en-1-yl)ethyl acetate and a trap consisting of a white sticky cardboard. The rest of trial conditions were the same as those described above.

[4] = Analysis of attractant content of the carrier after field exposure (emission); assay type: physicochemical
Method: as §1, with “Alginet” left out, “trap. […] Therefore, the average emission during those 21 days is 5.52±1.20 μg/day.” for “trap.”

SMILES | Attraction of populations of P. longispinus (in words) ([1]; persimmon cultivation in the Valencian Community) | Males captured by traps baited with virgin females relative to traps baited with the synthetic pheromone ([1]; preliminary tests, virgin females of P. longispinus as comparator) [times] | Captures (mean) of P. longispinus males [2] | Attractant activity of baited devices (in words) [3] | Captures (mean) of P. longispinus males [3] | Attractive power of baited devices (in words) ([2]; 250 μg, versus traps without attractant (A) and pheromone described by Millar et al. (B)) | Final content of the substance in the carrier ([4]; after 21 days, carrier initially loaded with 250 μg) [µg] | Average emission ([4]; during 21 days, rubber septum loaded with 250 μg) [µg/day]
CC(=O)OCCC1(C)C=CCC1(C)C (centres unmarked) [Millar et al. (B), 2-(1,5,5-trimethylcyclopent-2-en-1-yl)ethyl acetate] | ineffective | 100 | 0.21 a | – | – | – | – | –
C=C1C=CC(C)(CCOC(C)=O)C1C (racemic) [Acetate of formula I (C), 2-(1,5-dimethyl-4-methylenecyclopent-2-en-1-yl)ethyl acetate] | – | – | 19.35 b | highest level of captures | 406.58 c | significantly higher attractive power | 134 | 5.52 ± 1.20
C=C1C=CC(C)(CCOC(=O)CC)C1C (centres unmarked) [Propionate of formula I (B), 2-(1,5-dimethyl-4-methylenecyclopent-2-en-1-yl)ethyl propionate] | – | – | – | significant attractant activity | 89.07 b | – | – | –

Source: patent US20260231936A1, “COMPOUNDS AND COMPOSITIONS THAT ATTRACT THE SPECIES PSEUDOCOCCUS LONGISPINUS, ATTRACTANT DEVICE AND METHODS FOR CONTROLLING AND/OR MONITORING THE PEST” (Universitat Politècnica de València, priority 2023, published 2026)
